Reference: patent US20120095036A1, “NOVEL SUBSTITUTED INDAZOLE AND AZA-INDAZOLE DERIVATIVES AS GAMMA SECRETASE MODULATORS” (priority 2009, published 2012)

Experiments:
Aβ42 [1] = assay: Method 1: Aβ42 sandwich ELISA on media of SKNBE2 cells carrying APP 695 wild type (γ-secretase-modulating activity); assay type: cell-based; details: SKNBE2 cells APP 695 wild type, 18 hours
Protocol: (§1) Screening was carried out using SKNBE2 cells carrying the APP 695—wild type, grown in Dulbecco's Modified Eagle's Medium/Nutrient mixture F-12 (DMEM/NUT-mix F-12) (HAM) provided by Gibco (cat no. 31330-38) containing 5% Serum/Fe supplemented with 1% non-essential amino acids. Cells were grown to near confluency.
(§2) The screening was performed using the assay as described in Citron et al (1997) Nature Medicine 3: 67. Briefly, cells were plated in a 96-well plate at about 10^5 cells/ml one day prior to addition of compounds. Compounds were added to the cells in Ultraculture (Lonza, BE12-725F) supplemented with 1% glutamine (Invitrogen, 25030-024) for 18 hours. The media were assayed by two sandwich ELISAs, for Aβ42 and Aβtotal. Toxicity of the compounds was assayed by WST-1 cell proliferation reagent (Roche, 1 644 807) according to the manufacturer's protocol.
To quantify the amount of Aβ42 in the cell supernatant, commercially available Enzyme-Linked-Immunosorbent-Assay (ELISA) kits were used (Innotest® β-Amyloid(1-42), Innogenetics N.V., Ghent, Belgium). The Aβ42 ELISA was performed essentially according to the manufacturer's protocol. Briefly, the standards (dilutions of synthetic A131-42) were prepared in polypropylene Eppendorf with final concentrations of 8000 down to […] (½ dilution step). Samples, standards and blanks (100 μl) were added to the anti-Aβ42-coated plate supplied with the kit (the capture antibody selectively recognizes the C-terminal end of the antigen). The plate was allowed to incubate 3 h at 25° C. in order to allow formation of the antibody-amyloid complex. Following this incubation and subsequent wash steps a selective anti-A13-antibody conjugate (biotinylated 3D6) was added and incubated for a minimum of 1 hour in order to allow formation of the antibody-Amyloid-antibody-complex. After incubation and appropriate wash steps, a Streptavidine-Peroxidase-Conjugate was added, followed 30 minutes later by an addition of 3,3′,5,5′-tetramethylbenzidine (TMB)/peroxide mixture, resulting in the conversion of the substrate into a coloured product. This reaction was stopped by the addition of sulfuric acid (0.9 N) and the colour intensity was measured by means of photometry with an ELISA-reader with a 450 nm filter.
(§3) To obtain the values reported in Table 3a, the sigmoidal dose response curves were analysed by computerised curve-fitting, with percent of inhibition plotted against compound concentration. A 4-parameter equation (model 205) in XLfit was used to determine the IC50. The top and the bottom of the curve were fixed to 100 and 0, respectively, and the hill slope was fixed to 1. The IC50 represents the concentration of a compound that is required for inhibiting a biological effect by 50% (Here, it is the concentration where Aβ peptide level is reduced by 50%).

Aβtotal [2] = assay: Method 1: Aβtotal sandwich ELISA on media of SKNBE2 cells carrying APP 695 wild type; assay type: cell-based; details: SKNBE2 cells APP 695 wild type, 18 hours
Protocol: as §1, §2
To quantify the amount of Aβtotal in the cell supernatant, samples and standards were added to a 6E10-coated plate. The plate was allowed to incubate overnight at 4° C. in order to allow formation of the antibody-amyloid complex. Following this incubation and subsequent wash steps a selective anti-AB-antibody conjugate (biotinylated 4G8) was added and incubated for a minimum of 1 hour in order to allow formation of the antibody-Amyloid-antibody-complex. After incubation and appropriate wash steps, a Streptavidine-Peroxidase-Conjugate was added, followed 30 minutes later by an addition of Quanta Blu fluorogenic peroxidase substrate according to the manufacturer's instructions (Pierce Corp., Rockford, Il).
as §3

Aβ42 [3] = assay: Method 2: Aβ42 Alphalisa on supernatant of SKNBE2 cells carrying APP 695 wild type; assay type: cell-based; details: SKNBE2 cells APP 695 wild type, overnight
Protocol: as §1, with “Invitrogen” for “Gibco”, “10371-029)” for “31330-38)”, “acids, 1-glutamine 2 mM, Hepes 15 mM, penicillin 50 U/ml (units/ml) en streptomycin 50 μg/ml.” for “acids.”
(§4) The screening was performed using a modification of the assay as described in Citron et al (1997) Nature Medicine 3: 67. Briefly, cells were plated in a 384-well plate at 10^4 cells/well in Ultraculture (Lonza, BE12-725F) supplemented with 1% glutamine (Invitrogen, 25030-024), 1% non-essential amino acid (NEAA), penicillin 50 U/ml en streptomycin 50 μg/ml in the presence of test compound at different test concentrations. The cell/compound mixture was incubated overnight at 37° C., 5% CO2, The next day the media were assayed by two sandwich immuno-assays, for Aβ42 and Aβtotal.
(§5) Aβtotal and Aβ42 concentrations were quantified in the cell supernatant using the Aphalisa technology (Perkin Elmer). Alphalisa is a sandwich assay using biotinylated antibody attached to streptavidin coated donorbeads and antibody conjugated to acceptor beads. In the presence of antigen, the beads come into close proximity. The excitation of the donor beads provokes the release of singlet oxygen molecules that trigger a cascade of energy transfer in the acceptor beads, resulting in light emission. To quantify the amount of Aβ42 in the cell supernatant, monoclonal antibody specific to the C-terminus of Aβ42 (JRF/cAβ42/26) was coupled to the receptor beads and biotinylated antibody specific to the N-terminus of AB (JRF/AβN/25) was used to react with the donor beads. To quantify the amount of Aβtotal in the cell supernatant, monoclonal antibody specific to the N-terminus of AB (JRF/AβN/25) was coupled to the receptor beads and biotinylated antibody specific to the mid region of Aβ (biotinylated 4G8) was used to react with the donor beads.
(§6) To obtain the values reported in Table 3b, the data were calculated as percentage of the maximum amount of amyloid Beta 42 measured in the absence of the test compound. The sigmoidal dose response curves were analyzed using non-linear regression analysis with percentage of the control plotted against the log concentration of the compound. A 4-parameter equation was used to determine the IC50.

Aβtotal [4] = assay: Method 2: Aβtotal Alphalisa on supernatant of SKNBE2 cells carrying APP 695 wild type; assay type: cell-based; details: SKNBE2 cells APP 695 wild type, overnight
Protocol: as §1, with “Invitrogen” for “Gibco”, “10371-029)” for “31330-38)”, “acids, 1-glutamine 2 mM, Hepes 15 mM, penicillin 50 U/ml (units/ml) en streptomycin 50 μg/ml.” for “acids.”
as §4, §5, §6

| SMILES | IC50 (Aβ42 [1]; Homo sapiens) [nM] | IC50 (Aβtotal [2]; Homo sapiens) [nM] | IC50 (Aβ42 [3]; Homo sapiens) [nM] | IC50 (Aβtotal [4]; Homo sapiens) [nM] | melting point [°C] | IC50 (Aβ42 [1]) [nM] | IC50 (Aβtotal [2]) [nM] | IC50 (Aβ42 [3]) [nM] | IC50 (Aβtotal [4]) [nM] |
| --- | --- | --- | --- | --- | --- | --- | --- | --- | --- |
| COc1cc(Nc2cccc3c(C)n(-c4ccc(F)cc4F)nc23)ccc1-n1cnc(C)c1 [Compound 16, 2-(2,4-difluorophenyl)-N-[3-methoxy-4-(4-methyl-1H-imidazol-1-yl)phenyl]-3-methyl-2H-indazol-7-amine] | 190 | > 3000 | 54 | 8510 | – | – | – | – | – |
| COc1cc(Nc2cccc3cn(CC(F)(F)F)nc23)ccc1-n1cnc(C)n1 [Compound 18, N-[3-methoxy-4-(3-methyl-1H-1,2,4-triazol-1-yl)phenyl]-2-(2,2,2-trifluoroethyl)-2H-indazol-7-amine] | 479 | > 3000 | 331 | > 10000 | – | – | – | – | – |
| COc1cccc(-n2cc3cccc(Nc4ccc(-n5cnc(C)n5)c(OC)c4)c3n2)c1 [Compound 19, N-[3-methoxy-4-(3-methyl-1H-1,2,4-triazol-1-yl)phenyl]-2-(3-methoxyphenyl)-2H-indazol-7-amine] | 126 | > 3000 | 123 | 3020 | – | – | – | – | – |
| CCOc1cc(C)c(-n2nc3c(Nc4ccc(-n5cnc(C)n5)c(OC)c4)cccc3c2C)cc1C(C)C [Compound 20, 2-[4-ethoxy-2-methyl-5-(1-methylethyl)phenyl]-N-[3-methoxy-4-(3-methyl-1H-1,2,4-triazol-1-yl)phenyl]-3-methyl-2H-indazol-7-amine] | 67 | > 3000 | 59 | 6030 | – | – | – | – | – |
| COc1cc(Nc2nc(C)cc3cn(CC(F)(F)F)nc23)ccc1-n1cnc(C)n1 [Compound 21, N-[3-methoxy-4-(3-methyl-1H-1,2,4-triazol-1-yl)phenyl]-5-methyl-2-(2,2,2-trifluoroethyl)-2H-pyrazolo[3,4-c]pyridin-7-amine] | – | – | > 3000 | > 3000 | 203.4 | – | – | – | – |
| Cc1ncc(-c2ccc(Nc3cccc4cn(C)nc34)cc2)o1 [Compound 24, 2-methyl-N-[4-(2-methyl-5-oxazolyl)phenyl]-2H-indazol-7-amine] | – | – | > 3000 | > 3000 | 168.7 | – | – | – | – |
| Cc1ncc(-c2ccc(Nc3cccc4cn(CC5CC5)nc34)cc2)o1 [Compound 25, 2-(cyclopropylmethyl)-N-[4-(2-methyl-5-oxazolyl)phenyl]-2H-indazol-7-amine .2HCl] | – | – | – | – | – | 1740 | > 150000 | 1260 | 49000 |
| Cc1ncc(-c2ccc(Nc3cccc4cn(C5CCOCC5)nc34)cc2)o1 [Compound 28, N-[4-(2-methyl-5-oxazolyl)phenyl]-2-(tetrahydro-2H-pyran-4-yl)-2H-indazol-7-amine] | – | – | > 3000 | – | 224.8 | – | – | – | – |
| CCOc1cc(C)c(-n2nc3c(Nc4ccc(-c5cnc(C)o5)cc4)cccc3c2C)cc1C(C)C [Compound 30, 2-[4-ethoxy-2-methyl-5-(1-methylethyl)phenyl]-3-methyl-N-[4-(2-methyl-5-oxazolyl)phenyl]-2H-indazol-7-amine] | 127 | > 3000 | 129 | > 10000 | – | – | – | – | – |
| Cc1ncc(-c2ccc(Nc3cccc4c(C)n(-c5ccc(F)cc5)nc34)cc2)o1 [Compound 31, 2-(4-fluorophenyl)-3-methyl-N-[4-(2-methyl-5-oxazolyl)phenyl]-2H-indazol-7-amine .1.5HCl] | – | – | – | – | – | 126 | > 3000 | 37 | > 10000 |
| Cc1ncc(-c2ccc(Nc3cccc4c(C)n(-c5ccc(F)cc5F)nc34)cc2)o1 [Compound 33, 2-(2,4-difluorophenyl)-3-methyl-N-[4-(2-methyl-5-oxazolyl)phenyl]-2H-indazol-7-amine] | – | – | 166 | > 10000 | 139.9 | – | – | – | – |
| COc1cc(Nc2cccc3cn(CC4CC4)nc23)ccc1-c1ocnc1C [Compound 37, 2-(cyclopropylmethyl)-N-[3-methoxy-4-(4-methyl-5-oxazolyl)phenyl]-2H-indazol-7-amine .2HCl] | – | – | – | – | – | 2660 | > 3000 | > 3000 | > 3000 |
| COc1cccc(-n2nc3c(Nc4ccc(-c5ocnc5C)c(OC)c4)cccc3c2C)c1 [Compound 39, N-[3-methoxy-4-(4-methyl-5-oxazolyl)phenyl]-2-(3-methoxyphenyl)-3-methyl-2H-indazol-7-amine .1.9HCl] | – | – | – | – | – | 29 | > 3000 | 30 | > 10000 |
| COc1cc(Nc2nc(C)cc3cn(CC(F)(F)F)nc23)ccc1-c1cnc(C)o1 [Compound 41, N-[3-methoxy-4-(2-methyl-5-oxazolyl)phenyl]-5-methyl-2-(2,2,2-trifluoroethyl)-2H-pyrazolo[3,4-c]pyridin-7-amine] | – | – | > 3000 | > 3000 | 213.8 | – | – | – | – |
| Cc1ncoc1-c1ccc(Nc2cccc3c(C)n(-c4ccc(F)cc4)nc23)cn1 [Compound 46, 2-(4-fluorophenyl)-3-methyl-N-[6-(4-methyl-5-oxazolyl)-3-pyridinyl]-2H-indazol-7-amine] | 199 | > 3000 | 66 | 4270 | – | – | – | – | – |
| CC(C)c1ncc(-c2ccc(Nc3cccc4cn(CC(F)(F)F)nc34)cc2)o1 [Compound 48, N-[4-[2-(1-methylethyl)-5-oxazolyl]phenyl]-2-(2,2,2-trifluoroethyl)-2H-indazol-7-amine] | – | – | > 3000 | > 3000 | 103.9 | – | – | – | – |
| COc1cc(Nc2cc(C)nc3cn(CC(F)(F)F)nc23)ccc1-c1cnc(C)o1 [Compound 51, N-[3-methoxy-4-(2-methyl-5-oxazolyl)phenyl]-5-methyl-2-(2,2,2-trifluoroethyl)-2H-pyrazolo[4,3-b]pyridin-7-amine] | – | – | 234 | 5250 | 211.5 | – | – | – | – |
| Cc1cn(-c2ccc(Nc3cccc4cn(CC(F)(F)F)nc34)cc2F)cn1 [Compound 52, N-[3-fluoro-4-(4-methyl-1H-imidazol-1-yl)phenyl]-2-(2,2,2-trifluoroethyl)-2H-indazol-7-amine] | – | – | 339 | > 10000 | 144.9 | – | – | – | – |
